Reference: PubChem BioAssay AID1963865 (Molecular Pharmacology Branch, DTP, NCI, 2024)

Test system: KRAS PDC multicell spheroid viability
Assay: Anticancer human tumor 825966-067-R-J1-PDC patient-derived colon carcinoma cell line growth inhibition [KRAS2]
Details: for IC50: curve of first compound; for viability, T/C: stronger effect = lower value
Summary of the method: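 Combination screen of spheroid viability in tumor-cell co-cultures with endothelial (HUVEC) and mesenchymal stem cell stroma. Each agent was tested in half-log dilutions, topping at clinical Cmax or at 10 microM without a known Cmax.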

[1] = second compound 0.1 µM, first compound 0.01 µM
[2] = second compound 0.1 µM, first compound 0.0316 µM
[3] = second compound 0.1 µM, first compound 0.1 µM
[4] = second compound 0.1 µM, first compound 0.316 µM
[5] = second compound 0.1 µM, first compound 1 µM
[6] = second compound 0.1 µM, first compound 3.16 µM
[7] = second compound 0.316 µM, first compound 0.01 µM
[8] = second compound 0.316 µM, first compound 0.0316 µM
[9] = second compound 0.316 µM, first compound 0.1 µM
[10] = second compound 0.316 µM, first compound 0.316 µM
[11] = second compound 0.316 µM, first compound 1 µM
[12] = second compound 0.316 µM, first compound 3.16 µM
[13] = second compound 1 µM, first compound 0.01 µM
[14] = second compound 1 µM, first compound 0.0316 µM
[15] = second compound 1 µM, first compound 0.1 µM
[16] = second compound 1 µM, first compound 0.316 µM
[17] = second compound 1 µM, first compound 1 µM
[18] = second compound 1 µM, first compound 3.16 µM
[19] = second compound 3.16 µM, first compound 0.01 µM
[20] = second compound 3.16 µM, first compound 0.0316 µM
[21] = second compound 3.16 µM, first compound 0.1 µM
[22] = second compound 3.16 µM, first compound 0.316 µM
[23] = second compound 3.16 µM, first compound 1 µM
[24] = second compound 3.16 µM, first compound 3.16 µM
[25] = second compound 10 µM, first compound 0.01 µM
[26] = second compound 10 µM, first compound 0.0316 µM
[27] = second compound 10 µM, first compound 0.1 µM
[28] = second compound 10 µM, first compound 0.316 µM
[29] = second compound 10 µM, first compound 1 µM
[30] = second compound 10 µM, first compound 3.16 µM
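Also: spheroids exposed to compounds for 7 days.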
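For viability, T/C in this document: 100% = DMSO vehicle control viability.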

| Structure (SMILES) | IC50 (second compound 0.1 µM) [nM] | IC50 (second compound 0.316 µM) [nM] | IC50 (second compound 1 µM) [nM] | IC50 (second compound 3.16 µM) [nM] | IC50 (second compound 10 µM) [nM] | viability, T/C [1] [%] | viability, T/C [2] [%] | viability, T/C [3] [%] | viability, T/C [4] [%] | viability, T/C [5] [%] | viability, T/C [6] [%] | viability, T/C [7] [%] | viability, T/C [8] [%] | viability, T/C [9] [%] | viability, T/C [14] [%] | viability, T/C [15] [%] | viability, T/C [20] [%] | viability, T/C [21] [%] | viability, T/C [26] [%] | viability, T/C [27] [%] | further results |
| --- | --- | --- | --- | --- | --- | --- | --- | --- | --- | --- | --- | --- | --- | --- | --- | --- | --- | --- | --- | --- | --- |
| CC1COCCN1c1cc(-c2ccnn2C)c2ccnc(-c3ccn[nH]3)c2n1 (stereo not given) + CC1OCC2(CCN(c3cnc(Sc4ccnc(N)c4Cl)c(N)n3)CC2)C1N | 2860 | > 3160 | 3160 | 79.3 | 17.2 | 135 | 120 | 78.5 | 75.3 | 60 | 46.6 | 125 | 139 | 57.9 | 135 | 57.4 | 118 | 32.4 | 29.6 | 12.9 | viability, T/C [10]: 66.4%; viability, T/C [11]: 60.2%; viability, T/C [12]: 59%; viability, T/C [13]: 128%; viability, T/C [16]: 55.8%; viability, T/C [17]: 51.3%; viability, T/C [18]: 48.5%; viability, T/C [19]: 134%; viability, T/C [22]: 29%; viability, T/C [23]: 32.9%; viability, T/C [24]: 36.3%; viability, T/C [25]: 68.1%; viability, T/C [28]: 11.3%; viability, T/C [29]: 12.6%; viability, T/C [30]: 18.3% |
| Cn1nccc1Nc1nccc(-c2cc3c(s2)C(C)(C)N(CCN2CCOCC2)C3=O)n1 + CC1OCC2(CCN(c3cnc(Sc4ccnc(N)c4Cl)c(N)n3)CC2)C1N | > 10000 | > 10000 | > 10000 | > 10000 | 85 |  | 125 | 97.3 | 128 | 95.8 | 104 |  | 88.8 | 124 | 93 | 115 | 107 | 130 | 80.4 | 45 | viability, T/C (second compound 0.1 µM, first compound 10 µM): 68.5%; viability, T/C [10]: 131%; viability, T/C [11]: 104%; viability, T/C [12]: 87.4%; viability, T/C (second compound 0.316 µM, first compound 10 µM): 77.3%; viability, T/C [16]: 106%; viability, T/C [17]: 81.9%; viability, T/C [18]: 89.2%; viability, T/C (second compound 1 µM, first compound 10 µM): 63.3%; viability, T/C [22]: 92.3%; viability, T/C [23]: 56.6%; viability, T/C [24]: 59%; viability, T/C (second compound 3.16 µM, first compound 10 µM): 77%; viability, T/C [28]: 14.4%; viability, T/C [29]: 6.71%; viability, T/C [30]: 12.1%; viability, T/C (second compound 10 µM, first compound 10 µM): 43.9% |
| CC(=O)OC12COC1CC(O)C1(C)C(=O)C(O)C3=C(C)C(OC(=O)C(O)C(NC(=O)OC(C)(C)C)c4ccccc4)CC(O)(C(OC(=O)c4ccccc4)C21)C3(C)C (stereo not given) + CNCc1ccccc1-c1csc(C(C)Nc2nc(C)nc3cc(OC)c(OC)cc23)c1 | < 10 | < 10 | < 10 | < 10 | < 10 | 21.7 | 14.4 | 17.6 | 15.7 | 18.1 | 23.4 | 17.2 | 10.2 | 11.7 | 17.5 | 11.6 | 15.2 | 1.18 | 1.24 | 0.96 | viability, T/C [10]: 11.5%; viability, T/C [11]: 14.3%; viability, T/C [12]: 18.6%; viability, T/C [13]: 12.6%; viability, T/C [16]: 13%; viability, T/C [17]: 15.5%; viability, T/C [18]: 16.2%; viability, T/C [19]: 0.14%; viability, T/C [22]: 0.07%; viability, T/C [23]: 0.57%; viability, T/C [24]: 24.8%; viability, T/C [25]: 2.23%; viability, T/C [28]: 0.12%; viability, T/C [29]: 0.12%; viability, T/C [30]: 0.18% |
| CN(C)C/C=C/C(=O)Nc1cc2c(Nc3ccc(F)c(Cl)c3)ncnc2cc1O[C@H]1CCOC1 + CNCc1ccccc1-c1csc(C(C)Nc2nc(C)nc3cc(OC)c(OC)cc23)c1 | > 100 | > 100 | > 100 | > 100 | < 0.316 | 113 | 88.8 | 106 |  |  |  | 105 | 99.3 | 92.4 | 108 | 106 | 130 | 104 | 1.87 | 2.49 | viability, T/C (second compound 0.1 µM, first compound 0.000316 µM): 103%; viability, T/C (second compound 0.1 µM, first compound 0.001 µM): 92.3%; viability, T/C (second compound 0.1 µM, first compound 0.00316 µM): 98%; viability, T/C (second compound 0.316 µM, first compound 0.000316 µM): 123%; viability, T/C (second compound 0.316 µM, first compound 0.001 µM): 108%; viability, T/C (second compound 0.316 µM, first compound 0.00316 µM): 107%; viability, T/C (second compound 1 µM, first compound 0.000316 µM): 110%; viability, T/C (second compound 1 µM, first compound 0.001 µM): 101%; viability, T/C (second compound 1 µM, first compound 0.00316 µM): 89.5%; viability, T/C [13]: 107%; viability, T/C (second compound 3.16 µM, first compound 0.000316 µM): 128%; viability, T/C (second compound 3.16 µM, first compound 0.001 µM): 113%; viability, T/C (second compound 3.16 µM, first compound 0.00316 µM): 107%; viability, T/C [19]: 1.05%; viability, T/C (second compound 10 µM, first compound 0.000316 µM): 1.54%; viability, T/C (second compound 10 µM, first compound 0.001 µM): 0.37%; viability, T/C (second compound 10 µM, first compound 0.00316 µM): 0.43%; viability, T/C [25]: 1.89% |
